In PubChem BioAssay (NCI):
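These data come from cells grown in 96-well plates and exposed to compound for 48 hours at five concentrations. GI50 = concentration required for 50% inhibition of growth. TGI: total growth inhibition.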

What was measured:
Test in all cases: growth of human tumour cells (NCI), 48 h
786-0 renal = test system: 786-0 renal
A498 renal = test system: A498 renal
A549 NSCLC = test system: A549 NSCLC
ACHN renal = test system: ACHN renal
BT-549 breast = test system: BT-549 breast
CAKI-1 renal = test system: CAKI-1 renal
CCRF-CEM leukemia = test system: CCRF-CEM leukemia
COLO 205 colon = test system: COLO 205 colon
DU-145 prostate = test system: DU-145 prostate
EKVX NSCLC = test system: EKVX NSCLC
HCC-2998 colon = test system: HCC-2998 colon
HCT-116 colon = test system: HCT-116 colon
HCT-15 colon = test system: HCT-15 colon
HL-60(TB) leukemia = test system: HL-60(TB) leukemia
HOP-62 NSCLC = test system: HOP-62 NSCLC
HOP-92 NSCLC = test system: HOP-92 NSCLC
HS 578T breast = test system: HS 578T breast
HT29 colon = test system: HT29 colon
IGROV1 ovarian = test system: IGROV1 ovarian
K-562 leukemia = test system: K-562 leukemia
KM12 colon = test system: KM12 colon
LOX IMVI melanoma = test system: LOX IMVI melanoma
M14 melanoma = test system: M14 melanoma
MALME-3M melanoma = test system: MALME-3M melanoma
MCF7 breast = test system: MCF7 breast
MDA-MB-231 breast = test system: MDA-MB-231 breast
MDA-MB-435 = test system: MDA-MB-435
MOLT-4 leukemia = test system: MOLT-4 leukemia
NCI-H226 lung = test system: NCI-H226 lung
NCI-H23 lung = test system: NCI-H23 lung
NCI-H460 lung = test system: NCI-H460 lung
NCI-H522 lung = test system: NCI-H522 lung
NCI/ADR-RES ovarian = test system: NCI/ADR-RES ovarian
OVCAR-3 ovarian = test system: OVCAR-3 ovarian
OVCAR-4 ovarian = test system: OVCAR-4 ovarian
OVCAR-5 ovarian = test system: OVCAR-5 ovarian
OVCAR-8 ovarian = test system: OVCAR-8 ovarian
PC-3 prostate = test system: PC-3 prostate
RPMI-8226 leukemia = test system: RPMI-8226 leukemia
RXF 393 renal = test system: RXF 393 renal
SF-268 CNS = test system: SF-268 CNS
SF-295 CNS = test system: SF-295 CNS
SF-539 CNS = test system: SF-539 CNS
SK-MEL-2 melanoma = test system: SK-MEL-2 melanoma
SK-MEL-28 melanoma = test system: SK-MEL-28 melanoma
SK-MEL-5 melanoma = test system: SK-MEL-5 melanoma
SK-OV-3 ovarian = test system: SK-OV-3 ovarian
SN12C renal = test system: SN12C renal
SNB-19 CNS = test system: SNB-19 CNS
SNB-75 CNS = test system: SNB-75 CNS
SW-620 colon = test system: SW-620 colon
T-47D breast = test system: T-47D breast
TK-10 renal = test system: TK-10 renal
U251 CNS = test system: U251 CNS
UACC-257 melanoma = test system: UACC-257 melanoma
UACC-62 melanoma = test system: UACC-62 melanoma
UO-31 renal = test system: UO-31 renal

N#Cc1cc(-c2ccnc(Nc3ccc(NC(=O)CCl)cc3)n2)ccc1N1CCCC1
GI50 (786-0 renal): 0.649 µM | TGI (786-0 renal): 6.14 µM | GI50 (A498 renal): 3.88 µM | TGI (A498 renal): 9.92 µM | GI50 (A549 NSCLC): 5.27 µM | TGI (A549 NSCLC): 14.7 µM | GI50 (ACHN renal): 1.86 µM | TGI (ACHN renal): 6.6 µM | GI50 (BT-549 breast): 0.708 µM | TGI (BT-549 breast): 2.25 µM | GI50 (CAKI-1 renal): 0.875 µM | TGI (CAKI-1 renal): 6.77 µM | GI50 (CCRF-CEM leukemia): 0.738 µM | TGI (CCRF-CEM leukemia): > 25 µM | GI50 (COLO 205 colon): 2.87 µM | TGI (COLO 205 colon): 7.17 µM | GI50 (DU-145 prostate): 4.17 µM | TGI (DU-145 prostate): 16.5 µM | GI50 (EKVX NSCLC): 22.6 µM | TGI (EKVX NSCLC): > 25 µM | GI50 (HCC-2998 colon): 4.96 µM | TGI (HCC-2998 colon): 9.14 µM | GI50 (HCT-116 colon): 0.684 µM | TGI (HCT-116 colon): 1.88 µM | GI50 (HCT-15 colon): 0.734 µM | TGI (HCT-15 colon): 3 µM | GI50 (HL-60(TB) leukemia): 5.1 µM | TGI (HL-60(TB) leukemia): > 25 µM | GI50 (HOP-62 NSCLC): 4.64 µM | TGI (HOP-62 NSCLC): 18.8 µM | GI50 (HOP-92 NSCLC): 4.22 µM | TGI (HOP-92 NSCLC): > 25 µM | GI50 (HS 578T breast): 2.22 µM | TGI (HS 578T breast): > 25 µM | GI50 (HT29 colon): 0.68 µM | TGI (HT29 colon): 4.8 µM | GI50 (IGROV1 ovarian): 0.514 µM | TGI (IGROV1 ovarian): 1.18 µM | GI50 (K-562 leukemia): 0.711 µM | TGI (K-562 leukemia): > 25 µM | GI50 (KM12 colon): 3.84 µM | TGI (KM12 colon): 10.2 µM | GI50 (LOX IMVI melanoma): 0.45 µM | TGI (LOX IMVI melanoma): 0.865 µM | GI50 (M14 melanoma): 0.646 µM | TGI (M14 melanoma): 1.49 µM | GI50 (MALME-3M melanoma): 1.47 µM | TGI (MALME-3M melanoma): 6.05 µM | GI50 (MCF7 breast): 0.809 µM | TGI (MCF7 breast): 3.64 µM | GI50 (MDA-MB-231 breast): 2.82 µM | TGI (MDA-MB-231 breast): 10.1 µM | GI50 (MDA-MB-435): 0.716 µM | TGI (MDA-MB-435): 2.7 µM | GI50 (MOLT-4 leukemia): 2.42 µM | TGI (MOLT-4 leukemia): > 25 µM | GI50 (NCI-H226 lung): 0.723 µM | TGI (NCI-H226 lung): 1.66 µM | GI50 (NCI-H23 lung): 0.878 µM | TGI (NCI-H23 lung): 3.72 µM | GI50 (NCI-H460 lung): 2.04 µM | TGI (NCI-H460 lung): 6.4 µM | GI50 (NCI-H522 lung): 0.378 µM | TGI (NCI-H522 lung): 0.831 µM | GI50 (NCI/ADR-RES ovarian): 1.14 µM | TGI (NCI/ADR-RES ovarian): > 25 µM | GI50 (OVCAR-3 ovarian): 2.9 µM | TGI (OVCAR-3 ovarian): 7.59 µM | GI50 (OVCAR-4 ovarian): 3.49 µM | TGI (OVCAR-4 ovarian): 10.5 µM | GI50 (OVCAR-5 ovarian): 5.4 µM | TGI (OVCAR-5 ovarian): 12.7 µM | GI50 (OVCAR-8 ovarian): 1.15 µM | TGI (OVCAR-8 ovarian): > 25 µM | GI50 (PC-3 prostate): 2.68 µM | TGI (PC-3 prostate): 13.9 µM | GI50 (RPMI-8226 leukemia): 1.7 µM | TGI (RPMI-8226 leukemia): 22.7 µM | GI50 (RXF 393 renal): 0.779 µM | TGI (RXF 393 renal): 2.69 µM | GI50 (SF-268 CNS): 1.38 µM | TGI (SF-268 CNS): 9.4 µM | GI50 (SF-295 CNS): 5.11 µM | TGI (SF-295 CNS): 13.9 µM | GI50 (SF-539 CNS): 2.81 µM | TGI (SF-539 CNS): 5.9 µM | GI50 (SK-MEL-2 melanoma): 0.933 µM | TGI (SK-MEL-2 melanoma): 2.92 µM | GI50 (SK-MEL-28 melanoma): 4.28 µM | TGI (SK-MEL-28 melanoma): 8.54 µM | GI50 (SK-MEL-5 melanoma): 1.08 µM | TGI (SK-MEL-5 melanoma): 3.72 µM | GI50 (SK-OV-3 ovarian): 2.9 µM | TGI (SK-OV-3 ovarian): 6.97 µM | GI50 (SN12C renal): 0.818 µM | TGI (SN12C renal): 4.59 µM | GI50 (SNB-19 CNS): 4.87 µM | TGI (SNB-19 CNS): 16.7 µM | GI50 (SNB-75 CNS): 1.12 µM | TGI (SNB-75 CNS): 7.72 µM | GI50 (SW-620 colon): 0.815 µM | TGI (SW-620 colon): 2.63 µM | GI50 (T-47D breast): 5.1 µM | TGI (T-47D breast): 11 µM | GI50 (TK-10 renal): 0.894 µM | TGI (TK-10 renal): 3.48 µM | GI50 (U251 CNS): 3.35 µM | TGI (U251 CNS): 8.09 µM | GI50 (UACC-257 melanoma): 5.04 µM | TGI (UACC-257 melanoma): 11.6 µM | GI50 (UACC-62 melanoma): 2.22 µM | TGI (UACC-62 melanoma): 5.99 µM | GI50 (UO-31 renal): 1.07 µM | TGI (UO-31 renal): 4.29 µM
